Consider four compounds from PMC6943527, “Are the Hydantoin-1,3,5-triazine 5-HT6R Ligands a Hope to a Find New Procognitive and Anti-Obesity Drug? Considerations Based on Primary In Vivo Assays and ADME-Tox Profile In Vitro” (Molecules, 2019).

For orientation: Ki means a measure of affinity in units of concentration, obtained from inhibition or displacement. In general, half-life refers to the time needed for the level to fall by half in the phase considered. Read a low half-life as rapid decline. The term Papp denotes a coefficient for how fast a substance crosses the barrier. The low end stands for poor permeation, the high end for ready permeation. A word on the viability: it is the share of living cells, or the viability signal relative to a control.

One data set has as its target 5-HT1A. More on the design: method as in PMID 30282913. Conditions: radioligand binding, average of at least two independent experiments; read-out: Ki 5-HT1A [3H]-8-OH-DPAT; cited from earlier work.
For another data set, the target named is D2. More on the design: method as in PMID 30282913. The settings on record: radioligand binding, average of at least two independent experiments; read-out: Ki D2 [3H]-Raclopride; cited from earlier work.
Another data set concerns the target 5-HT6. More on the design: method as in PMID 30282913. Conditions: radioligand binding, average of at least two independent experiments; read-out: Ki 5-HT6 [3H]-LSD; cited from earlier work.
Data set [1] in a line: Metabolic stability and metabolic pathways in human liver microsomes.
Method: The pharmacokinetic parameters of compounds were estimated by using human liver microsomes (HLMs) (Sigma-Aldrich, St. Louis, MO, USA). The t1/2 values and intrinsic clearances (CLint) were calculated with IS by using the protocols and formulas proposed by Obach [38]. […] VL was used as the reference unstable drug.
The test system of data set [2] is human embryonic kidney (HEK)-293 cells. Details: method as in PMID 30282913. The settings on record: highest concentration 100 µM; cited from earlier work.
Data set [3] is described as follows: Parallel artificial membrane permeability assay (PAMPA). In general terms: In PAMPA a lipid-coated filter parts donor from acceptor wells.
The target of the next data set is 5-HT7. More on the design: method as in PMID 30282913. Conditions: radioligand binding, average of at least two independent experiments; read-out: Ki 5-HT7 [3H]-5-CT; cited from earlier work.
Data set [4] in a line: Hepatotoxicity assay, HepG2 cell viability. The class given is cell-based. Conditions: human, HepG2 hepatoma cells, 100 µM, read-out: HepG2 cell viability, % of the control. The procedure:
The cell-based assays were used to investigate safety of the 5-HT6R ligands. […] During the same study, no effect for KMP-10 was observed. Additional safety tests with the hepatoma HepG2 cell line were performed here to estimate the compounds’ hepatotoxicity. A slight antiproliferative effect was observed only for DJ-18 at 100 µM, where the cell viability was decreased to up to ~83% of the control (Figure 9a).
Hepatotoxicity was estimated using the hepatoma HepG2 (ATCC® HB-8065^TM) cell line according to previously described protocols. The CellTiter 96® AQueous Non-Radioactive Cell Proliferation Assay was obtained from Promega (Madison, WI, USA). The compounds were investigated in quadruplicate at four concentrations (0.1–100 µM) for 72h. The antiproliferative drug DX was used as a positive control at a dose of 1 µM.

On the set-up of data set [5]: method as in PMID 29297106. Conditions: earlier studies; cited from earlier work.
A further data set addresses T1, CYP2D6 (Homo sapiens, UniProt P10635).
T1 construct: purchased Promega (Madison, WI, USA)
Details: method as in PMID 28212021. Conditions: cited from earlier work.

For a further data set, the target named is T2, CYP3A4 (Homo sapiens, UniProt P08684).
T2 construct: purchased Promega (Madison, WI, USA)
T2 sequence (P08684 whole entry): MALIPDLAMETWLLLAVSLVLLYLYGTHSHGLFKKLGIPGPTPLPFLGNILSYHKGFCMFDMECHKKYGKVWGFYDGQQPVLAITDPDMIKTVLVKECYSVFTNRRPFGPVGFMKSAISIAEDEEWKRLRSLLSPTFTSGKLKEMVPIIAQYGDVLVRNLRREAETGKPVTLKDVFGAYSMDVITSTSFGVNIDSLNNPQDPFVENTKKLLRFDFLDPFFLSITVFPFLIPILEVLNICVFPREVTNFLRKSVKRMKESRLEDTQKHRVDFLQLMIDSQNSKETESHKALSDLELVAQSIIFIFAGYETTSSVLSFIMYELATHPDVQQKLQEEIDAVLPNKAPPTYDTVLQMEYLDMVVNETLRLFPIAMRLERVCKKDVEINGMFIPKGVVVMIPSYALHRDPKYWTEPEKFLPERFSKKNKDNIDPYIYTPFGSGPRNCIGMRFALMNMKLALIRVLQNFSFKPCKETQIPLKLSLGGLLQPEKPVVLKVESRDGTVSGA
More on the design: method as in PMID 28212021. Conditions: cited from earlier work.

The conditions of data set [6]: cited from earlier work.

Each structure is given as a SMILES string.

T1 sequence (P10635 whole entry): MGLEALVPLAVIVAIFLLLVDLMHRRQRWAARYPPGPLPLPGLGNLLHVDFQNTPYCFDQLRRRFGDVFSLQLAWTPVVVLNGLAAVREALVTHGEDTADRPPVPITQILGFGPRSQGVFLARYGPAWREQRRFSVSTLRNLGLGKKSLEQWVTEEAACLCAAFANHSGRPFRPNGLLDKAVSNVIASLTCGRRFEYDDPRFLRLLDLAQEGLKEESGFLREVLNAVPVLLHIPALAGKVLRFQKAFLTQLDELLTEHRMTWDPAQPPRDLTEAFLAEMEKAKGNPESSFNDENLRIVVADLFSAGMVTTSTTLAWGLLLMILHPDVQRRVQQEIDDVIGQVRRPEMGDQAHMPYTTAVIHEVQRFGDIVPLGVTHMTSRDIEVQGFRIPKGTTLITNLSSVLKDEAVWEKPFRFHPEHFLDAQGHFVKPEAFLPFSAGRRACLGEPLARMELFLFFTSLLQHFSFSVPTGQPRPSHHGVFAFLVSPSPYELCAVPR

On to `CN1CCN(c2nc(N)nc(CN3C(=O)N(Cc4ccc(Cl)cc4)C(C)(C)C3=O)n2)CC1` [DJ-18], for which the Ki at 5-HT1A is 23.3 µM. Besides, the Ki on D2 is 4.1 µM. Besides, the inhibition constant (Ki) at 5-HT6 was 0.127 µM. In data set [1] (HLMs, 120 min incubation), the “Metabolic Pathway, metabolite M1” value is on record as “demethylation”; the “Metabolic Pathway, metabolite M2” value is “hydroxylation”; the “Metabolic Pathway, metabolite M3” value is “demethylation and hydroxylation”; the “Metabolic Pathway, metabolite M4” value is “hydroxylation”. The “Intrinsic Clearance CLint” value in data set [1] (HLMs, reactions terminated at 5, 15, 30 and 45 min) was determined as 4.32 mL/min/kg. For the same compound, the “t1/2, fold longer than verapamil” value in data set [1] (HLMs, vs unstable reference verapamil) is ~ 6 fold. The same compound came in with a half-life in [1] (human, liver microsomes, Half-Life t1/2, HLMs, reactions terminated at 5, 15, 30 and 45 min) of 3.12 h. Further, the HEK-293 cells viability result in data set [2] was “statistically significant slight decrease”. Besides, in data set [3] (PAMPA, pH 7.4), the Papp at 5 h, 200 µM turned out to be 24.9 ± 0.45 ×10⁻⁶ cm/s. Moreover, in data set [3] (vs high-permeable reference caffeine), the “PAMPA ability to penetrate the artificial membrane, fold stronger than caffeine” value is ~ 1.65. Besides, the Ki at 5-HT7 was 3.71 µM. In [4], the viability at 72 h, 100 µM was approximately 83%.
As for `Fc1ccc2c(CCNCc3cccc(OCC(F)(F)C(F)F)c3)c[nH]c2c1` [Idalopirdine], in [5], the “Amount of visceral fat” value is recorded as “significantly reduced” and the Elevated glucose levels entry is given as “compensated for elevated glucose levels”.
Regarding `CCn1cc(C(=O)O)c(=O)c2cc(F)c(N3CCNCC3)cc21` [Norfloxacin, norfloxacin, reference compound], the “PAMPA Pe ± SD” value in data set [3] (200 µM in PBS pH 7.4, 5 h, room temperature, triplicate) is 0.56 ± 0.13 10^−6 cm/s.
For the compound `COc1ccc2c(c1)c(CN1CCN(C)CC1)cn2S(=O)(=O)c1ccccc1Br.CS(=O)(=O)O.CS(=O)(=O)O.O` [SUVN-502, 1-[(2-Bromophenyl)sulfonyl]-5-methoxy-3-[(4-methyl-1-piperazinyl)methyl]-1H-indole Dimesylate Monohydrate], the CYP2D6 inhibition result on CYP2D6 is reported as “weaker inhibitor”. Further, the CYP3A4 inhibition entry at CYP3A4 is recorded as “rather strong inhibitor”. In addition, the BBB-penetration result in data set [6] (after oral administration) is “good BBB (blood brain barrier)-penetration”. Also, the t1/2 in vivo in data set [6] (pharmacokinetics in vivo) is 0.95 h.
